Here are results for 31 molecules from patent publication US9663513B2, “Pyrimidine PDE10 inhibitors” (Merck Sharp & Dohme Corp., priority 2012, dated 2017).

Chain of human PDE10A2 (Q9Y233 267-1055): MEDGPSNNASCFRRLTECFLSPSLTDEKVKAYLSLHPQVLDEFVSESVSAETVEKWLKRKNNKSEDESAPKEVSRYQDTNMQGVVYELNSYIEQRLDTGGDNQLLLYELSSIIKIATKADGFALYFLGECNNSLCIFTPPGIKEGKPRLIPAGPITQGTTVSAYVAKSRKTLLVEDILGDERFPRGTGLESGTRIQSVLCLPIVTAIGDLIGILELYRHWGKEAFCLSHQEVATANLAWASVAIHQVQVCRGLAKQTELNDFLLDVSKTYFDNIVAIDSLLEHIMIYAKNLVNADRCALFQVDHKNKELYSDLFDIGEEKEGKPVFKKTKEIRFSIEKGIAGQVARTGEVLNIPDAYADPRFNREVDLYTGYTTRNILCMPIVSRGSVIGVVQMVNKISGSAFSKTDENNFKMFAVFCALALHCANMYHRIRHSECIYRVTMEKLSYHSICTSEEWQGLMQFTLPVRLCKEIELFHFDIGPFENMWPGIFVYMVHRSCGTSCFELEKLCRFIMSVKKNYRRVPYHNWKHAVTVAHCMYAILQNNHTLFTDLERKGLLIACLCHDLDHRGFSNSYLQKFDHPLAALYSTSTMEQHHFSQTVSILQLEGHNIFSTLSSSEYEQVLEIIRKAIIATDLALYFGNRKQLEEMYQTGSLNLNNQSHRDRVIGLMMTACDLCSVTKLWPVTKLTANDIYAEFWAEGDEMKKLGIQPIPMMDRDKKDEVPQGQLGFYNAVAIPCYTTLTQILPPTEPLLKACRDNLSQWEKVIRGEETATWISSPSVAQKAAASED

The assay addresses human PDE10A2 (Homo sapiens (Human), UniProt Q9Y233). The assay is described as follows: PDE10 fluorescence polarization (IMAP FP) inhibition assay. It counts as biochemical. The note with it: human PDE10A2 from transfected AD293 cells; FAM-labeled cAMP 50 nM; apparent inhibition constant; read-out: PDE10A Ki. The procedure, abridged: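 Cytoplasmic lysate of AD293 cells transiently expressing human PDE10A2 (enzyme level giving 20% conversion) incubated with 50 nM FAM-cAMP in pH 7.2 Tris/MgCl2 buffer, 30 min at room temperature. IMAP binding solution added, FP read after ≥1 h; 10-point 3-fold compound titrations fitted to a four-parameter equation.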
A general note: Fluorescence polarisation rises when a labelled molecule tumbles more slowly, as on binding a larger partner.
Turning to `COc1ccc([C@H]2C[C@@H]2COc2nc(C)ncc2-c2ccc(-c3nc(CCl)no3)cc2)nc1` [Example 94, 3-(chloromethyl)-5-(4-(4-(((1S,2S)-2-(5-methoxypyridin-2-yl)cyclopropyl)methoxy)-2-methylpyrimidin-5-yl)phenyl)-1,2,4-oxadiazole], the Ki is 1.17 nM.

Take `COc1ccc([C@H]2C[C@@H]2COc2nc(C)ncc2-c2ccc(-c3nc(CO)no3)cc2)nc1` [Example 95, (5-(4-(4-(((1S,2S)-2-(5-methoxypyridin-2-yl)cyclopropyl)methoxy)-2-methylpyrimidin-5-yl)phenyl)-1,2,4-oxadiazol-3-yl)methanol]: the Ki was determined as 0.93 nM.

`COc1ccc([C@H]2C[C@@H]2COc2nc(C)ncc2-c2cnc(C(=O)O)cn2)nc1` [Example 96, 5-(4-(((1S,2S)-2-(5-methoxypyridin-2-yl)cyclopropyl)methoxy)-2-methylpyrimidin-5-yl)pyrazine-2-carboxylic acid]: the Ki is 1.26 nM. The same measure for `COC(=O)c1cnc(-c2cnc(C)nc2OC[C@H]2C[C@@H]2c2ccc(OC)cn2)cn1` [Example 97, methyl 5-(4-(((1S,2S)-2-(5-methoxypyridin-2-yl)cyclopropyl)methoxy)-2-methylpyrimidin-5-yl)pyrazine-2-carboxylate]: 9.74 nM; for `COc1ccc([C@H]2C[C@@H]2COc2nc(C)ncc2-c2cnc(CO)cn2)nc1` [Example 98, (5-(4-(((1S,2S)-2-(5-methoxypyridin-2-yl)cyclopropyl)methoxy)-2-methylpyrimidin-5-yl)pyrazin-2-yl)methanol]: 12 nM. On to `COc1ccc([C@H]2C[C@@H]2COc2nc(C)ncc2-c2ccc(C(=O)O)nn2)nc1` [Example 99, 6-(4-(((1S,2S)-2-(5-methoxypyridin-2-yl)cyclopropyl)methoxy)-2-methylpyrimidin-5-yl)pyridazine-3-carboxylic acid], for which the Ki was 2.68 nM. The same measure for `COc1ccc([C@H]2C[C@@H]2COc2nc(C)ncc2-c2ccc(C(C)(C)O)nn2)nc1` [Example 100, 2-(6-(4-(((1S,2S)-2-(5-methoxypyridin-2-yl)cyclopropyl)methoxy)-2-methylpyrimidin-5-yl)pyridazin-3-yl)propan-2-ol]: 4.01 nM.

For `COc1ccc([C@H]2C[C@@H]2COc2nc(C)ncc2-c2ccc(CO)nn2)nc1` [Example 101, (6-(4-(((1S,2S)-2-(5-methoxypyridin-2-yl)cyclopropyl)methoxy)-2-methylpyrimidin-5-yl)pyridazin-3-yl)methanol], the Ki is 11.9 nM. As for `COc1ccc([C@H]2C[C@@H]2COc2nc(C)ncc2-c2ccc(C)nn2)nc1` [Example 102, 3-(4-(((1S,2S)-2-(5-methoxypyridin-2-yl)cyclopropyl)methoxy)-2-methylpyrimidin-5-yl)-6-methylpyridazine], the Ki was 10.3 nM. The same measure for `CNC(=O)c1ccc(-c2cnc(C)nc2OC[C@H]2C[C@@H]2c2ccc(OC)cn2)cn1` [Example 103, 5-(4-(((1S,2S)-2-(5-methoxypyridin-2-yl)cyclopropyl)methoxy)-2-methylpyrimidin-5-yl)-N-methylpicolinamide]: 2.35 nM; for `COc1ccc([C@H]2C[C@@H]2COc2nc(C)ncc2-c2ccc(C(=O)NCC(F)(F)F)nc2)nc1` [Example 104, 5-(4-(((1S,2S)-2-(5-methoxypyridin-2-yl)cyclopropyl)methoxy)-2-methylpyrimidin-5-yl)-N-(2,2,2-trifluoroethyl)picolinamide]: 0.67 nM; for `COc1ccc([C@H]2C[C@@H]2COc2nc(C)ncc2-c2ccc(C(N)=O)nc2)nc1` [Example 105, 5-(4-(((1S,2S)-2-(5-methoxypyridin-2-yl)cyclopropyl)methoxy)-2-methylpyrimidin-5-yl)picolinamide]: 1.41 nM. The same measure for `COc1ccc([C@H]2C[C@@H]2COc2nc(C)ncc2-c2ccc(C(=O)NCCO)nc2)nc1` [Example 106, N-(2-hydroxyethyl)-5-(4-(((1S,2S)-2-(5-methoxypyridin-2-yl)cyclopropyl)methoxy)-2-methylpyrimidin-5-yl)picolinamide]: 0.64 nM.

Consider `COc1ccc([C@H]2C[C@@H]2COc2nc(C)ncc2-c2ccc(C(=O)NCCO)cc2)nc1` [Example 107, N-(2-hydroxyethyl)-4-(4-(((1S,2S)-2-(5-methoxypyridin-2-yl)cyclopropyl)methoxy)-2-methylpyrimidin-5-yl)benzamide], for which the Ki was found to be 1.06 nM. The same measure for `COc1ccc([C@H]2C[C@@H]2COc2nc(C)ncc2-c2ccnc(N)c2C#N)nc1` [Example 108, 2-amino-4-(4-(((1S,2S)-2 (5-methoxypyridin-2-yl)cyclopropyl)methoxy)-2-methylpyrimidin-5-yl)nicotinonitrile]: 3.75 nM; for `COc1ccc([C@H]2C[C@@H]2COc2nc(C)ncc2-c2ccc(C#N)n2C)nc1` [Example 109, 5-(4-(((1S,2S)-2-(5-methoxypyridin-2-yl)cyclopropyl)methoxy)-2-methylpyrimidin-5-yl)-1-methyl-1H-pyrrole-2-carbonitrile]: 0.94 nM; for `CCOC(=O)c1cnc(O)cc1-c1cnc(C)nc1OC[C@H]1C[C@@H]1c1ccc(OC)cn1` [Example 110, ethyl 6-hydroxy-4-(4-(((1S,2S)-2-(5-methoxypyridin-2-yl)cyclopropyl)methoxy)-2-methylpyrimidin-5-yl)nicotinate]: 41.6 nM. Regarding `COc1ccc([C@H]2C[C@@H]2COc2nc(C)ncc2-c2cc(Cl)ncc2OC)nc1` [Example 111, 5-(2-chloro-5-methoxypyridin-4-yl)-4-(((1S,2S)-2-(5-methoxypyridin-2-yl)cyclopropyl)methoxy)-2-methylpyrimidine], the Ki came to 0.79 nM. For the molecule `COc1ccc([C@H]2C[C@@H]2COc2nc(C)ncc2-c2cc(Cl)ncc2OCOCC[Si](C)(C)C)nc1` [Example 112, 5-(2-chloro-5-((2-(trimethylsilyl)ethoxy)methoxy)pyridin-4-yl)-4-(((1S,2S)-2-(5-methoxypyridin-2-yl)cyclopropyl)methoxy)-2-methylpyrimidine], the Ki is 19.2 nM.

Regarding `COc1ccc([C@H]2C[C@@H]2COc2nc(C)ncc2-c2cc(C#N)n(C)c2)nc1` [Example 113, 4-(4-(((1S,2S)-2-(5-methoxypyridin-2-yl)cyclopropyl)methoxy)-2-methylpyrimidin-5-yl)-1-methyl-1H-pyrrole-2-carbonitrile], the Ki was found to be 0.89 nM. Consider `COc1ccc([C@H]2C[C@@H]2COc2nc(C)ncc2-c2cn(C)nc2C(O)C(F)(F)F)nc1` (stereo partly drawn) [Example 114, 2,2,2-trifluoro-1-(4-(4-(((1S,2S)-2-(5-methoxypyridin-2-yl)cyclopropyl)methoxy)-2-methylpyrimidin-5-yl)-1-methyl-1H-pyrazol-3-yl)ethanol], for which the Ki is 0.93 nM.

As to `COc1ccc([C@H]2C[C@@H]2COc2nc(C)ncc2C2=CCOCC2)nc1` [Example 115, 5-(3,6-dihydro-2H-pyran-4-yl)-4-(((1S,2S)-2-(5-methoxypyridin-2-yl)cyclopropyl)methoxy)-2-methylpyrimidine], the Ki worked out at 0.76 nM. The same measure for `Cc1ncc(-c2cn(C)nc2CO)c(OC[C@H]2C[C@@H]2c2ccccn2)n1` [Example 116, (1-methyl-4-(2-methyl-4-(((1S,2S)-2-(pyridin-2-yl)cyclopropyl)methoxy)pyrimidin-5-yl)-1H-pyrazol-3-yl)methanol]: 9.01 nM; for `Cc1ncc(-c2ccc(C(F)(F)F)nc2)c(OC[C@H]2C[C@@H]2c2ccccn2)n1` [Example 117, 2-methyl-4-(((1S,2S)-2-(pyridin-2-yl)cyclopropyl)methoxy)-5-(6-(trifluoromethyl)pyridin-3-yl)pyrimidine]: 23.5 nM; for `Cc1ncc(-c2cnc(C(C)(C)O)cc2C)c(OC[C@H]2C[C@@H]2c2ccccn2)n1` [Example 118, 2-(4-methyl-5-(2-methyl-4-(((1S,2S)-2-(pyridin-2-yl)cyclopropyl)methoxy)pyrimidin-5-yl)pyridin-2-yl)propan-2-ol]: 0.1 nM.

As to `Cc1ncc(-c2ccc(C(C)(C)O)nc2C)c(OC[C@H]2C[C@@H]2c2ccccn2)n1` [Example 119, 2-(6-methyl-5-(2-methyl-4-(((1S,2S)-2-(pyridin-2-yl)cyclopropyl)methoxy)pyrimidin-5-yl)pyridin-2-yl)propan-2-ol], the Ki turned out to be 2.15 nM. Then `Cc1ncc(-c2ccc(C3(O)CCCC3)nc2)c(OC[C@H]2C[C@@H]2c2ccccn2)n1` [Example 120, 1-(5-(2-methyl-4-(((1S,2S)-2-(pyridin-2-yl)cyclopropyl)methoxy)pyrimidin-5-yl)pyridin-2-yl)cyclopentanol], with 1.04 nM; and `Cc1ncc(-c2ccc(C(C)O)cc2)c(OC[C@H]2C[C@@H]2c2ccccn2)n1` (stereo partly drawn) [Example 121, 1-(4-(2-methyl-4-(((1S,2S)-2-(pyridin-2-yl)cyclopropyl)methoxy)pyrimidin-5-yl)phenyl)ethanol], with 5.05 nM. Then `Cc1ncc(-c2ccc(C(C)O)cc2)c(OC[C@H]2C[C@@H]2c2ccccn2)n1` (stereo partly drawn) [Example 122, 1-(4-(2-methyl-4-(((1S,2S)-2-(pyridin-2-yl)cyclopropyl)methoxy)pyrimidin-5-yl)phenyl)ethanol], with 2.85 nM; and `Cc1ncc(-c2ccc(C(C)(C)O)nc2)c(OC[C@H]2C[C@@H]2c2ccccn2)n1` [Example 123, 2-(5-(2-methyl-4-(((1S,2S)-2-(pyridin-2-yl)cyclopropyl)methoxy)pyrimidin-5-yl)pyridin-2-yl)propan-2-ol], with 1.09 nM; and `Cc1ncc(-c2ccc(C(C)(C)O)nc2)c(OC[C@@H]2C[C@H]2c2ccc(Br)cn2)n1` [Example 124, 2-(5-(4-(((1R,2R)-2-(5-bromopyridin-2-yl)cyclopropyl)methoxy)-2-methylpyrimidin-5-yl)pyridin-2-yl)propan-2-ol], with 8.57 nM.
